Experiments:
Conditions in all cases: substrate uM: Ia 2, AMMC 20, CEC 40, MFC 50, BFC 50, BQ 40, BzRes 50; 30 min; enzyme 50 nM
Rat CYP2A2 = Rat CYP2A2 (Rattus norvegicus, UniProt P15149); assay: Turnover of fluorometric substrates by rat CYP2A2
Rat CYP2B1 = target: T1, Rat CYP2B1 (Rattus norvegicus, UniProt P00176); assay: Turnover of fluorometric substrates by rat CYP2B1
T1 sequence (P00176 1-491): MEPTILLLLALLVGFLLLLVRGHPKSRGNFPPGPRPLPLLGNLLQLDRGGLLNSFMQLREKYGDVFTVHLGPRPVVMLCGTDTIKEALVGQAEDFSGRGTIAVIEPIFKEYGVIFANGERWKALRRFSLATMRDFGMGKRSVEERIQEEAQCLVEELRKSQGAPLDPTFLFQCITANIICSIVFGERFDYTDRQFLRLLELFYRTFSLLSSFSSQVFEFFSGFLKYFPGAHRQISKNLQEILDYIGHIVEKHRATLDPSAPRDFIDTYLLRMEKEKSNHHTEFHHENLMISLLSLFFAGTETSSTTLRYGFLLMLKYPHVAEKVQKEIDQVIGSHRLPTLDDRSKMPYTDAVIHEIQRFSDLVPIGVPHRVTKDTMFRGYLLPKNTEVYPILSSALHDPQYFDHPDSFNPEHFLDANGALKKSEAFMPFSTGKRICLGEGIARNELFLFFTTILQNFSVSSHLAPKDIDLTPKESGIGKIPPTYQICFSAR

Rat CYP2D2 = target: T2, Rat CYP2D2 (Rattus norvegicus, UniProt P10634); assay: Turnover of fluorometric substrates by rat CYP2D2
T2 sequence (P10634 1-500): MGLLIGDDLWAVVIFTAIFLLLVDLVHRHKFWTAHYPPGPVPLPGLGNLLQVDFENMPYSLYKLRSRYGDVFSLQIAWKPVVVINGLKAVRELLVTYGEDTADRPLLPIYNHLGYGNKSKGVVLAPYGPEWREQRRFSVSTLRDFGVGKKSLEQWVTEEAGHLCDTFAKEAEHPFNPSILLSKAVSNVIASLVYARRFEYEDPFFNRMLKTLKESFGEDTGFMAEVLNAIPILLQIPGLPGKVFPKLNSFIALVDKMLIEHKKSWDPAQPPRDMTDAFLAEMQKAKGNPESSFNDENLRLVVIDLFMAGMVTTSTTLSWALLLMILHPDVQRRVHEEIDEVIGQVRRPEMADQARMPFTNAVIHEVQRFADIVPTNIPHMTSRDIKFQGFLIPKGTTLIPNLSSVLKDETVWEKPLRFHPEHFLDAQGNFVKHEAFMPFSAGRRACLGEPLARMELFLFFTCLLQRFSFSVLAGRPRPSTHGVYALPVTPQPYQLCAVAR

Rat CYP3A1 = target: T3, Rat CYP3A1 (Rattus norvegicus, UniProt P04800); assay: Turnover of fluorometric substrates by rat CYP3A1
T3 sequence (P04800 1-504): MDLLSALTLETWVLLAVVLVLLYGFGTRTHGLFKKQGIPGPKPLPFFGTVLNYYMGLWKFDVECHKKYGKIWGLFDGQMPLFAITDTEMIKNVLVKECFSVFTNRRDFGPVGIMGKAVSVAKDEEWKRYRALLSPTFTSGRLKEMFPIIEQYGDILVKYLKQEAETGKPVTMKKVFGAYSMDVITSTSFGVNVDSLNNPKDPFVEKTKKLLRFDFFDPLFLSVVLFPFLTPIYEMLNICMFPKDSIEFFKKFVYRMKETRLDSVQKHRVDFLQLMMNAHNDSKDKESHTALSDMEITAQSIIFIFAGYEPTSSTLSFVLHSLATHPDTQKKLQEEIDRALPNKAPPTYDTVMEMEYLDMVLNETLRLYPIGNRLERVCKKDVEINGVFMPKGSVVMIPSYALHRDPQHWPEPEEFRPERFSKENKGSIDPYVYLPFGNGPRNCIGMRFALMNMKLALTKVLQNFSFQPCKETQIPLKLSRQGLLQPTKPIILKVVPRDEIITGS

Rat CYP3A2 = target: T4, Rat CYP3A2 (Rattus norvegicus, UniProt P05183); assay: Turnover of fluorometric substrates by rat CYP3A2
T4 sequence (P05183 1-504): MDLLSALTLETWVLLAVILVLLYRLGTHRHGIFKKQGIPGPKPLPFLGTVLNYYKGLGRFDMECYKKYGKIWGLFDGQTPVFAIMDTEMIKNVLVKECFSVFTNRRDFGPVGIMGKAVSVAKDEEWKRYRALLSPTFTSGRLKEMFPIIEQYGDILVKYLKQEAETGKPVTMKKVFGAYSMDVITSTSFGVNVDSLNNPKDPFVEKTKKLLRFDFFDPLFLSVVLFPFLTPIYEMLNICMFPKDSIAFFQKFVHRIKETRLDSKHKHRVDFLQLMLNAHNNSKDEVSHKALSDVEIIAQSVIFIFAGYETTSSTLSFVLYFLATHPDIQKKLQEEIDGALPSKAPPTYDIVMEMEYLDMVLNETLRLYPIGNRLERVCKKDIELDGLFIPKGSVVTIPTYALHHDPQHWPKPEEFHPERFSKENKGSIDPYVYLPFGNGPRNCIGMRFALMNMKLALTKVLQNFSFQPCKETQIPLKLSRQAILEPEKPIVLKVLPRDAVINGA

Rat CYP2C11 = target: T5, Rat CYP2C11 (Rattus norvegicus, UniProt P08683); assay: Turnover of fluorometric substrates by rat CYP2C11
T5 sequence (P08683 1-500): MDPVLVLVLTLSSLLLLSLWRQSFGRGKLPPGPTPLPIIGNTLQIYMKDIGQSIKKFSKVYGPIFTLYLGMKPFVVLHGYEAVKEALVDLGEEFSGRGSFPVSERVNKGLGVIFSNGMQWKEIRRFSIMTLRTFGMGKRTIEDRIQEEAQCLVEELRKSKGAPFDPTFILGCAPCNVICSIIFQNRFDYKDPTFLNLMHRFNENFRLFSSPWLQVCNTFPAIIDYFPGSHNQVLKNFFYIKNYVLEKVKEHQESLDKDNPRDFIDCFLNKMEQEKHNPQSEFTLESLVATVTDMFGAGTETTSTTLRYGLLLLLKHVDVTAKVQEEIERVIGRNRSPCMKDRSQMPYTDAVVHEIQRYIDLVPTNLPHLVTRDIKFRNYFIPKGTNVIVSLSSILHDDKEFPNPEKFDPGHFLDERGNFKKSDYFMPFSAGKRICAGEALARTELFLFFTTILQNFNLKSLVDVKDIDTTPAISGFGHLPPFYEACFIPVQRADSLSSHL

Chain of Rat CYP2A2 (P15149 whole entry): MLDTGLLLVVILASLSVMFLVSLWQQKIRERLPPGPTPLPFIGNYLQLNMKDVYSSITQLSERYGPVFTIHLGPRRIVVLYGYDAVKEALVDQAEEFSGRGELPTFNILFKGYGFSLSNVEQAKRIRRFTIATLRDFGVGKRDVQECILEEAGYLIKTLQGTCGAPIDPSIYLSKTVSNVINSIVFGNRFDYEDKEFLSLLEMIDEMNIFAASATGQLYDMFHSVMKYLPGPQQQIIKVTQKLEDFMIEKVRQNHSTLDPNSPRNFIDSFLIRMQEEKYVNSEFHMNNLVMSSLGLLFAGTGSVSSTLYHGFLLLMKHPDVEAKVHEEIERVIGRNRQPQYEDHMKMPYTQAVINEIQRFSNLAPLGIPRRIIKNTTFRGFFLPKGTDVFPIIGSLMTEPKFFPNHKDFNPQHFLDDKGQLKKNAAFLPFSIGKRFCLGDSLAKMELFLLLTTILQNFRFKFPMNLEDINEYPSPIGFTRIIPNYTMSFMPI

| Structure (SMILES) | Turnover Numbers, CYP2A2 (Rat CYP2A2) | Turnover Numbers, CYP2B1 (Rat CYP2B1) | Turnover Numbers, CYP2D2 (Rat CYP2D2) | Turnover Numbers, CYP3A1 (Rat CYP3A1) | Turnover Numbers, CYP3A2 (Rat CYP3A2) | Turnover Numbers, CYP2C11 (Rat CYP2C11) |
| --- | --- | --- | --- | --- | --- | --- |
| O=c1ccc2nc3ccc(OCc4ccccc4)cc3oc-2c1 [BzRes, 7-benzyloxyresorufin] |  | 0.82 pmol product/min/pmol enzyme |  | 0.06 pmol product/min/pmol enzyme | 0.09 pmol product/min/pmol enzyme | 0.05 pmol product/min/pmol enzyme |
| CCOc1ccc2cc(C#N)c(=O)oc2c1 [CEC, 7-Ethoxy-3-cyanocoumarin] | 0.04 pmol product/min/pmol enzyme | 0.45 pmol product/min/pmol enzyme |  | 0.08 pmol product/min/pmol enzyme | 0.15 pmol product/min/pmol enzyme | 0.55 pmol product/min/pmol enzyme |
| COc1ccc2c(C(F)(F)F)cc(=O)oc2c1 [MFC, 7-Methoxy-4-trifluoromethylcoumarin] | 0.08 pmol product/min/pmol enzyme | 2.82 pmol product/min/pmol enzyme | 0.08 pmol product/min/pmol enzyme |  |  | 5.57 pmol product/min/pmol enzyme |

Continued, values first:

| Turnover Numbers, CYP2A2 (Rat CYP2A2) | Turnover Numbers, CYP2B1 (Rat CYP2B1) | Turnover Numbers, CYP2D2 (Rat CYP2D2) | Turnover Numbers, CYP3A1 (Rat CYP3A1) | Turnover Numbers, CYP3A2 (Rat CYP3A2) | Turnover Numbers, CYP2C11 (Rat CYP2C11) | Structure (SMILES) |
| --- | --- | --- | --- | --- | --- | --- |
| 0.26 pmol product/min/pmol enzyme | 3.70 pmol product/min/pmol enzyme | 0.12 pmol product/min/pmol enzyme | 1.33 pmol product/min/pmol enzyme | 1.04 pmol product/min/pmol enzyme | 0.34 pmol product/min/pmol enzyme | O=c1cc(C(F)(F)F)c2ccc(OCc3ccccc3)cc2o1 [BFC, 7-Benzyloxy-4-trifluoromethylcoumarin] |
| 2.8 pmol product/min/pmol enzyme | 2.5 pmol product/min/pmol enzyme | 4.4 pmol product/min/pmol enzyme | 8.4 pmol product/min/pmol enzyme | 9.8 pmol product/min/pmol enzyme |  | c1ccc(COc2ccc3cccnc3c2)cc1 [BQ, 7-Benzyloxyquinoline] |
| 0.030 pmol product/min/pmol enzyme |  | 0.194 pmol product/min/pmol enzyme | 0.027 pmol product/min/pmol enzyme | 0.015 pmol product/min/pmol enzyme | 0.065 pmol product/min/pmol enzyme | O=C(OCc1ccccc1)c1ccccc1-c1c2ccc(=O)cc-2oc2cc(OCc3ccccc3)ccc12 [Compound Ia, O-Benzylfluorescein Benzyl Ester] |

— patent publication US6420131B1, “Use of fluorescein aryl ethers in high throughput cytochrome P450 inhibition assays” (Gentest Corporation, priority 1999, dated 2002)
